# Experimental data from patent US20170232115A1 (priority 2011, published 2017).
# No end group written: not given here.
# Tests used:
# [1] = cited from earlier work
# [2] = In vitro transdermal permeation, modified Franz diffusion cells, HPLC; assay type: in vitro ADME, human
# Protocol: Finally, a number of these cosolvent formulations were evaluated for their in vitro transdermal permeation properties (FIG. 3X2). Note that these cosolvents are also known to function as permeability enhancers in some formulations (10-1 1). For this series of experiments, human skin obtained from abdominoplastic surgery was mounted on modified Franz diffusion cells and drug permeation was determined as a function of time using high performance liquid chromatography.
# The Franz diffusion cell is an essential tool in the field of transdermal drug delivery. Patient-derived skin is placed between the cell cap and the solution chamber. The cell cap is exposed to the environment allowing the stratum corneum to also be exposed to the environment. The solution chamber is filled with an isotonic diffusion buffer. Additionally the solution chamber has an injection port that allows for difhsion buffer to be removed without disturbing the setup. Finally, the solution chamber is surrounded by a water jacket that allows for temperature control. The Franz diffusion cell allows for in vitro studies of transdennal delivery to be carried out using physiological conditions. Note that penetration of any solute through the patient-derived skin into the difhsion buffer is equivalent to that solute reaching systemic circulation in an in vivo system. […] Determination of silica content in different layers of the skin will be determined using enzymatic tissue digestion, and inductively coupled plasma mass spectroscopy (ICP mass spec). Both the SLB and nanoporous particle core can be fluorescently tagged to allow for confocal microscopy. In addition, the skin samples can be microtomed after treatment and incubation with protocells so that they can be imaged using TEM.
# [3] = target: hepatocyte growth factor receptor (c-Met) (Homo sapiens, UniProt P08581); settings: peptide identified by phage display
# hepatocyte growth factor receptor (c-Met), sequence (P08581 25-932): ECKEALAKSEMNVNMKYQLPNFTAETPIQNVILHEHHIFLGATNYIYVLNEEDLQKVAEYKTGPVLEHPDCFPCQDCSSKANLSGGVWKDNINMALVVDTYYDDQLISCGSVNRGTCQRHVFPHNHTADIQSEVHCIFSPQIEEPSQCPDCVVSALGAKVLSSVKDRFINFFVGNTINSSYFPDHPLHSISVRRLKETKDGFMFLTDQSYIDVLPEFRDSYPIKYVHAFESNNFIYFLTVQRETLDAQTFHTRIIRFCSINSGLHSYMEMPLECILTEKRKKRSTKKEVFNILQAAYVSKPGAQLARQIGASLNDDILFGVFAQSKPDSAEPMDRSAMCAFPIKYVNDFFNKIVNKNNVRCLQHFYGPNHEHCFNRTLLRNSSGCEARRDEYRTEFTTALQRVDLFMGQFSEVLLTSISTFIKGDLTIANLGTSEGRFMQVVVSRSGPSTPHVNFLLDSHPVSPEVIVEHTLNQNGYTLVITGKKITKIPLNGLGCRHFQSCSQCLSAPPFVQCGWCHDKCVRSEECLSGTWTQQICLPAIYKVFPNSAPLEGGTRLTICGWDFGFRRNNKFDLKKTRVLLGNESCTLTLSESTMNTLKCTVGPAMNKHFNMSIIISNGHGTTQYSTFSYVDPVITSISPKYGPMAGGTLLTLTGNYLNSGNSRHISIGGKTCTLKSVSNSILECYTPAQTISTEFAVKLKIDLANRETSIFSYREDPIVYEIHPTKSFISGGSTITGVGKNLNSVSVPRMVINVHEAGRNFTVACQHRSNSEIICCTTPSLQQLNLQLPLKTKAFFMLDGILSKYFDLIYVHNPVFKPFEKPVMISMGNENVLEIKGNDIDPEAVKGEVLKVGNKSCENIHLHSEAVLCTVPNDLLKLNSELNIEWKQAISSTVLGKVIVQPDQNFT
molecule,measurement,setting,value
CC(C)Cc1ccc(C(C)C(=O)O)cc1 (stereo not drawn) [ibuprofen],solubility in H2O,[1],insoluble in H2O
Cc1ccc(NC(=O)c2ccc(CN3CCN(C)CC3)cc2)cc1Nc1nccc(-c2cccnc2)n1 [Imatinib],permeability through the skin,[2]; DMSO,highest permeability
same,flux (rate of permeation through the skin),[2]; DMSO formulation,0.225 μg/cm2hr
same,permeation through the skin,"[2]; water (pH 7) as solvent system, 24 hours",no imatinib permeated through the skin
CN1CCCC1c1cccnc1 (stereo not drawn) [Nicotine],solubility in H2O,[1],miscible in H2O
ASVHFPP [MC40],affinity for hepatocyte growth factor receptor (c-Met),[3],nanomolar affinity
